The record followed here is ChEMBL document CHEMBL2021794, “Synthesis, σ₁, σ₂-receptors binding affinity and antiproliferative action of new C1-substituted adamantanes” (Bioorg Med Chem, 2012).

The test system of one experiment is IGROV-1. Briefly: Cell cycle arrest in human IGROV1 cells assessed as accumulation at S phase at 15 uM after 24 hrs by propidium iodide staining based flow cytometry (reference value: 29%). The class given is functional.
A further experiment concerns PC-3. Put plainly: Cell cycle arrest in human PC3 cells assessed as accumulation at >G2 phase at 0.5 uM after 24 hrs by propidium iodide staining based flow cytometry (reference value: 6%). It is filed as functional.
The test system of the next experiment is NCI-H69. Put plainly: Growth inhibition of human NCI-H69 cells after 48 hrs by SRB assay. It is filed as functional. The settings on record: NCI-H69, 48 h. For orientation: In SRB staining, fixed cells bind dye roughly in proportion to their protein.
Experiment [1] concerns the target Sigma non-opioid intracellular receptor 1 (Homo sapiens, UniProt Q99720). Briefly: Displacement of [3H](+)pentazocine from sigma-1 receptor expressed in human Jurkat cell membranes after 2 hrs by liquid scintillation spectroscopy.

Chain of Sigma non-opioid intracellular receptor 1 (Q99720 whole entry): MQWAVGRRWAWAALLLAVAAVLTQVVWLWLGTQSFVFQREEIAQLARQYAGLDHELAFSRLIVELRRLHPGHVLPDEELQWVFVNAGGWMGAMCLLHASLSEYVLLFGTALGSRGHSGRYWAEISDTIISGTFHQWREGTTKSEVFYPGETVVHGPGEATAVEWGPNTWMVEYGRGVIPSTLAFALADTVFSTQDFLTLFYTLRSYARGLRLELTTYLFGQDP

As usually defined, the GI50 is the concentration giving 50% growth inhibition. As usually defined, the IC50 is the concentration that inhibits the measured activity by half. The low end stands for greater potency, the high end for weaker potency. Regarding `CN1CCN(c2ccc(C(c3ccccc3)C34CC5CC(CC(C5)C3)C4)cc2)CC1` (stereo not given), the Activity in the experiment on IGROV-1 was determined as 27%; with PC-3 it was 4%. This molecule had a GI50 with NCI-H69 of 7.09 µM. In addition, in the experiment on NCI-H69 (read-out: LC50 (the source's name)), the CC50 is 100 µM. The same molecule showed an IC50 in experiment [1] of 0.0032 µM.
